From patent US10538498B2, “1,3,4-oxadiazole sulfonamide derivative compounds as histone deacetylase 6 inhibitor, and the pharmaceutical composition comprising the same” (Chong Kun Dang Pharmaceutical Corp., priority 2015, dated 2020)

Target: T1, human recombinant HDAC6 (Homo sapiens, UniProt Q9UBN7)
T1 construct: purchased Calbiochem 382180
T1 sequence (Q9UBN7 1-1215): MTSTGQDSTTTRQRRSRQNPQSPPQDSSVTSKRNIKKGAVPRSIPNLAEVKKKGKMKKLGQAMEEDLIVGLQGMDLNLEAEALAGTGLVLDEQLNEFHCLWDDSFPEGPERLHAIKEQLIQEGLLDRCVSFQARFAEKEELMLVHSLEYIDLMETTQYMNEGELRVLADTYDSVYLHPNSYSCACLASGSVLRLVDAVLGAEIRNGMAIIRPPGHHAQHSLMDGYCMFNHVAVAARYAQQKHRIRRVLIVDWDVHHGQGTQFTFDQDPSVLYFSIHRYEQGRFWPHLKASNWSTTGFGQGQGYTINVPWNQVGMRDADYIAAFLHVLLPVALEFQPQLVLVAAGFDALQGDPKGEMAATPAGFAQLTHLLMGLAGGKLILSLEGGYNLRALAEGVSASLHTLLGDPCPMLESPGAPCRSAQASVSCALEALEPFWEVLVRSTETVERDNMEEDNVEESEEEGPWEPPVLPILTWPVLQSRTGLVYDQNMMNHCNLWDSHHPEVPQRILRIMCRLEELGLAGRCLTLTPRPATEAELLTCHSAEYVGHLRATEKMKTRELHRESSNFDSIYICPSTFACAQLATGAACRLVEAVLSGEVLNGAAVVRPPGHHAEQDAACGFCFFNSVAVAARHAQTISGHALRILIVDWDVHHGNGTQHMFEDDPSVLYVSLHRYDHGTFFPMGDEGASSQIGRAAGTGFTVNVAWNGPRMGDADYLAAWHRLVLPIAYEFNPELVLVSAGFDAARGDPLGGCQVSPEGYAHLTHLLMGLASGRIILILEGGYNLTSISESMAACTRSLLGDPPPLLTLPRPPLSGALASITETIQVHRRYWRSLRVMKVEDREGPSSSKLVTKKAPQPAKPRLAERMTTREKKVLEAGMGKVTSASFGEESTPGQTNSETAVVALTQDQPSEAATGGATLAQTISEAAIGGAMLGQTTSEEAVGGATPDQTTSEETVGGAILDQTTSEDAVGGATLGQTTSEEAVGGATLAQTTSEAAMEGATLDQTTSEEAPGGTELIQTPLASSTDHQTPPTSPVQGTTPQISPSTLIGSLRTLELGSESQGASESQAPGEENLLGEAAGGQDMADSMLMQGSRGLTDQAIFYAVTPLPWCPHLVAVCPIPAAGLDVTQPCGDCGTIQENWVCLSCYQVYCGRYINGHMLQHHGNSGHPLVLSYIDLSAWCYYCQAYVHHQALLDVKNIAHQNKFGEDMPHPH
Test: HDAC6 enzyme activity inhibition assay (HDAC Fluorimetric Drug Discovery Kit)
Type: biochemical
Settings: for HDAC6 selectivity (fold): HDAC1 vs HDAC6; for IC50: same protocol as the HDAC1 enzyme activity test
Experimental: In order to examine the HDAC6 selectivity of the compounds of formula I of the present invention by HDAC1 and HDAC6 enzymatic activity inhibition assays, an experiment was performed using a conventional substance as a control.
HDAC enzyme activity was measured using a HDAC Fluorimetric Drug Discovery Kit (BML-AK511, 516, Enzo Life Science). For the HDAC1 enzyme activity test, human recombinant HDAC1 (BML-SE456) was used as an enzyme source, and Fluor de Lys®-“SIRT1 (BNL-KI177) was used as a substrate. A 5-fold dilution of the compound was seeded into a 96-well plate, and then 0.3 μg of the enzyme and 10 μM of the substrate were added to each well of the plate and allowed to react at 30° C. for 60 minutes. Then, Fluor de Lys®-Developer II (BML-KI176) was added thereto and allowed to react for 30 minutes, after which the fluorescence value (Ex 360, Em 460) was measured using a multi-plate reader (Flexstation 3, Molecular Device). The HDAC6 enzyme was tested using human recombinant HDAC6 (382180) (Calbiochem) according to the same protocol as the HDAC1 enzyme activity test method. Based on the resulting values, each IC50 value was calculated using GraphPad Prism4.0 program.

SMILES	HDAC6 selectivity (fold)	IC50
O=S(=O)(c1cccnc1)N(Cc1ccc(-c2nnc(C(F)(F)F)o2)cc1F)c1cccc(C(F)(F)F)n1 [Compound 11253, N-(2-fluoro-4-(5-(trifluoromethyl)-1,3,4-oxadiazol-2-yl)benzyl)-N-(6-(trifluoromethyl)pyridin-2-yl)pyridine-3-sulfonamide]	150 fold	666 nM
O=S1(=O)CCC(S(=O)(=O)N(Cc2ccc(-c3nnc(C(F)(F)F)o3)cc2F)c2cccc(F)c2)CC1 [Compound 11255, N-(2-fluoro-4-(5-(trifluoromethyl)-1,3,4-oxadiazol-2-yl)benzyl)-N-(3-fluorophenyl)tetrahydro-2H-thiopyran-4-sulfonamide 1,1-dioxide]	2128 fold	47 nM
O=S1(=O)CCC(S(=O)(=O)N(Cc2ccc(-c3nnc(C(F)F)o3)cc2F)c2cccc(F)c2)CC1 [Compound 11256, N-(4-(5-(difluoromethyl)-1,3,4-oxadiazol-2-yl)-2-fluorobenzyl)-N-(3-fluorophenyl)tetrahydro-2H-thiopyran-4-sulfonamide 1,1-dioxide]	7692 fold	13 nM
CS(=O)(=O)N(Cc1ccc(-c2nnc(C(F)(F)F)o2)cc1F)c1ccc(Cl)cc1 [Compound 11271, N-(4-chlorophenyl)-N-(2-fluoro-4-(5-(trifluoromethyl)-1,3,4-oxadiazol-2-yl)benzyl)methanesulfonamide]	775 fold	129 nM
CS(=O)(=O)N(Cc1ccc(-c2nnc(C(F)(F)F)o2)cc1F)c1cncc(F)c1 [Compound 11272, N-(2-fluoro-4-(5-(trifluoromethyl)-1,3,4-oxadiazol-2-yl)benzyl)-N-(5-fluoropyridin-3-yl)methanesulfonamide]	1961 fold	51 nM
CS(=O)(=O)N(Cc1ccc(-c2nnc(C(F)(F)F)o2)cc1F)c1ccccc1F [Compound 11273, N-(2-fluoro-4-(5-(trifluoromethyl)-1,3,4-oxadiazol-2-yl)benzyl)-N-(2-fluorophenyl)methanesulfonamide]	1266 fold	79 nM
CS(=O)(=O)N(Cc1ccc(-c2nnc(C(F)(F)F)o2)cc1F)c1ccc(F)cc1 [Compound 11275, N-(2-fluoro-4-(5-(trifluoromethyl)-1,3,4-oxadiazol-2-yl)benzyl)-N-(4-fluorophenyl)methanesulfonamide]	1370 fold	73 nM
CS(=O)(=O)N(Cc1ccc(-c2nnc(C(F)F)o2)cc1F)c1ccc(F)cc1 [Compound 11276, N-(4-(5-(difluoromethyl)-1,3,4-oxadiazol-2-yl)-2-fluorobenzyl)-N-(4-fluorophenyl)methanesulfonamide]	4000 fold	25 nM
CS(=O)(=O)N(Cc1ccc(-c2nnc(C(F)(F)F)o2)cc1F)c1ccc(Br)cc1 [Compound 11277, N-(4-bromophenyl)-N-(2-fluoro-4-(5-(trifluoromethyl)-1,3,4-oxadiazol-2-yl)benzyl)methanesulfonamide]	535 fold	187 nM
CS(=O)(=O)N(Cc1ccc(-c2nnc(C(F)F)o2)cc1F)c1ccc(Br)cc1 [Compound 11278, N-(4-bromophenyl)-N-(4-(5-(difluoromethyl)-1,3,4-oxadiazol-2-yl)-2-fluorobenzyl)methanesulfonamide]	1923 fold	52 nM
CS(=O)(=O)N(Cc1ccc(-c2nnc(C(F)(F)F)o2)cc1F)c1ccccc1Cl [Compound 11279, N-(2-chlorophenyl)-N-(2-fluoro-4-(5-(trifluoromethyl)-1,3,4-oxadiazol-2-yl)benzyl)methanesulfonamide]	901 fold	111 nM
CS(=O)(=O)N(Cc1ccc(-c2nnc(C(F)F)o2)cc1F)c1ccc(Cl)cc1 [Compound 11281, N-(4-chlorophenyl)-N-(4-(5-(difluoromethyl)-1,3,4-oxadiazol-2-yl)-2-fluorobenzyl)methanesulfonamide]	2273 fold	44 nM
Cc1ccc(N(Cc2ccc(-c3nnc(C(F)(F)F)o3)cc2F)S(C)(=O)=O)cc1 [Compound 11282, N-(2-fluoro-4-(5-(trifluoromethyl)-1,3,4-oxadiazol-2-yl)benzyl)-N-(p-tolyl)methanesulfonamide]	781 fold	128 nM
CS(=O)(=O)N(Cc1ccc(-c2nnc(C(F)F)o2)cc1F)c1cncc(F)c1 [Compound 11284, N-(4-(5-(difluoromethyl)-1,3,4-oxadiazol-2-yl)-2-fluorobenzyl)-N-(5-fluoropyridin-3-yl)methanesulfonamide]	3704 fold	27 nM

Other lines, results leading:

HDAC6 selectivity (fold)	IC50	SMILES
2564 fold	39 nM	O=S(=O)(c1cccnc1)N(Cc1ccc(-c2nnc(C(F)F)o2)cc1F)c1ccccc1 [Compound 11252, N-(4-(5-(difluoromethyl)-1,3,4-oxadiazol-2-yl)-2-fluorobenzyl)-N-phenylpyridine-3-sulfonamide]
3448 fold	29 nM	CC(=O)c1cccc(N(Cc2ccc(-c3nnc(C(F)F)o3)cc2F)S(C)(=O)=O)c1 [Compound 11254, N-(3-acetylphenyl)-N-(4-(5-(difluoromethyl)-1,3,4-oxadiazol-2-yl)-2-fluorobenzyl)methanesulfonamide]
2439 fold	41 nM	CS(=O)(=O)N(Cc1ccc(-c2nnc(C(F)F)o2)cc1F)c1ccccc1F [Compound 11274]
1266 fold	79 nM	CS(=O)(=O)N(Cc1ccc(-c2nnc(C(F)F)o2)cc1F)c1ccccc1Cl [Compound 11280, N-(2-chlorophenyl)-N-(4-(5-(difluoromethyl)-1,3,4-oxadiazol-2-yl)-2-fluorobenzyl)methanesulfonamide]
1852 fold	54 nM	Cc1ccc(N(Cc2ccc(-c3nnc(C(F)F)o3)cc2F)S(C)(=O)=O)cc1 [Compound 11283, N-(4-(5-(difluoromethyl)-1,3,4-oxadiazol-2-yl)-2-fluorobenzyl)-N-(p-tolyl)methanesulfonamide]
3448 fold	29 nM	COC(=O)CCS(=O)(=O)N(Cc1ccc(-c2nnc(C(F)F)o2)cc1F)c1ccccc1 [Compound 11287, methyl 3-(N-(4-(5-(difluoromethyl)-1,3,4-oxadiazol-2-yl)-2-fluorobenzyl)-N-phenylsulfamoyl)propanoate]
2128 fold	47 nM	COCC(C)CS(=O)(=O)N(Cc1ccc(-c2nnc(C(F)F)o2)cc1F)c1ccccc1 (stereo not drawn) [Compound 11288]
3571 fold	28 nM	CCCS(=O)(=O)N(Cc1ccc(-c2nnc(C(F)F)o2)cc1F)c1ccccc1 [Compound 11289, N-(4-(5-(difluoromethyl)-1,3,4-oxadiazol-2-yl)-2-fluorobenzyl)-N-phenylpropane-1-sulfonamide]
2041 fold	49 nM	CCCCS(=O)(=O)N(Cc1ccc(-c2nnc(C(F)F)o2)cc1F)c1ccccc1 [Compound 11290, N-(4-(5-(difluoromethyl)-1,3,4-oxadiazol-2-yl)-2-fluorobenzyl)-N-phenylbutane-1-sulfonamide]
3226 fold	31 nM	O=S(=O)(C1CC1)N(Cc1ccc(-c2nnc(C(F)F)o2)cc1F)c1ccccc1 [Compound 11291, N-(4-(5-(difluoromethyl)-1,3,4-oxadiazol-2-yl)-2-fluorobenzyl)-N-phenylcyclopropanesulfonamide]
